Results as given in US9751875B2, “Quinine compounds, and optical isomers, preparation method and medical use thereof” (BEIJING FSWELCOME TECHNOLOGY DEVELOPMENT CO., LTD., priority 2013, dated 2017).
Where two headings read alike, the source gives them in different places.

Assays:
[1] = test system: tracheal smooth muscle from guinea pigs (contraction induced by 3 × 10^−6 mol/L of CCh); assay: Antagonism in vitro of contraction of isolated tracheal smooth muscle from guinea pigs induced by carbachol (CCh); type: cell-based, guinea pig; details: cumulative dosing
Excerpt: Preparation of the Isolated Tracheal Smooth Muscle Specimen from a Guinea Pig:
After a guinea pig was narcotized with urethane, the trachea between the throat and carina of the guinea pig was taken out rapidly, and placed in the Krebs-Henseleit (K-H) solution (composition (g/L): NaCl 6.92, KCl 0.35, CaCl2 0.28, KH2PO4 0.16, MgSO4.7H2O 0.4568, NaHCO3 2.1, Glucose 2.0) with a mixture gas of 5% CO2 and 95% O2 purged. After loose connective tissues and fats around the trachea were separated, the trachea was cut into trachea pieces having a width of about 3 mm and a length of 20 mm by a surgical scissor, with both ends of the trachea piece ligated with 4˜0 silk suture, and then placed into a thermostatic bath containing 5 ml of K—H solution (pH 7.4) at 37° C., with the mixture gas of 5% CO2 and 95% O2 continuously purged. A muscle tension transducer was connected to the upper end so as to apply 1.0 g of resting tension to the specimen, the change of the tension was recorded, the culture solution was replaced every 20 min, and the test was started after being balanced for 60 min.
Administration method: After the trachea piece was stabilized, 3×10^−6 mol/L of CCh was added into a bath, and after the contractile tension of the trachea piece reached a peak level, the example compounds, ipratropium bromide and tiotropium bromide were added into a Magnus bath by a cumulative dosing regimen with a dosage of 10^−9˜10^−5 mol, respectively, and the diastolic condition of the trachea piece was observed: if no response occurred (below the threshold concentration), a next dosage was continued to be added in sequence; if response occurred, after it reached a diastolic plateau, a next dosage was further added. The above operation was repeated until the contractile curve reached the minimum value. Finally, 10^−6 mol/L of isoprenaline was added so that the maximum relaxation would be reached and the curve was recorded.
Statistical approach: The result was expressed as mean ±standard deviation, and counted by Sigma Stat statistical package. The data was analyzed by using variance analysis, the comparison among means of a plurality of specimen was performed by using Student-Newman-Keuls(SNK) test; statistical significant level α=0.05 (bilateral).
Compounds shown in Table 5 were further prepared according to the present invention, and their IC50 […] of resistance to the contraction of tracheal smooth muscle from guinea pigs induced by a concentration of 3×10^−6 mol/L of CCh was determined.

[2] = test system: tracheal smooth muscle from guinea pigs (contraction induced by 3 × 10^−6 mol/L of CCh); assay: as above; type: cell-based, guinea pig
[3] = test system: m1, m2 and m3 subtypes of M receptor; assay: Competitive [3H]-QNB binding on membranes of CHO cells transfected with m1, m2, m3; selectivity on subtypes of M receptor; details: ratio of Ki, n = 6
[4] = test system: bronchus in guinea pigs (contractile response induced by Mch); assay: Antagonism of contractile response of bronchus in guinea pigs induced by methacholine (Mch); airway resistance and pulmonary dynamic compliance; type: in vivo, guinea pig; details: Mch 10 μg/kg iv after 30 min; for Cdyn(ml/cm H2O) / Raw (cm H2O/ml/s): Mean ± S.E.M
Excerpt: Determination of tidal volume, airway flow rate, and transpulmonary pressure: 1.5 g/kg of urethane was intraperitoneally injected to narcotize the guinea pig. The guinea pig was fixed supinely and treated with tracheal intubation, and the external jugular vein was separated and an indwelling needle was inserted; the guinea pig was enclosed into a body plethysmograph, a blunt needle for intubation into thoracic cavity was inserted between ribs 4˜5 of the prothorax of the guinea pig, and the intrathoracic pressure could be measured (with a negative value of a water column of a water manometer and a fluctuation with the breath of the guinea pig as marks). After stabilization, the values of the tidal volume, airway flow rate and transpulmonary pressure of the guinea pig prior to administration of Mch were recorded by a MedLab biological signal collection and processing system as base values. 10 μg/kg body weight of Mch was intravenously injected. The changes of the airway flow rate, tidal volume and transpulmonary pressure of the guinea pig within 5 minutes were observed. Calculation of Raw and Cdyn: the changes of the increased percentage of Raw value and the decreased percentage of Cdyn after […] of Mch were calculated.
Calculation formulas of Raw and Cdyn were respectively: […]
Dose-effect relationship: For each of the example compounds, 27 guinea pigs were randomly divided into […]: a solvent control group with […], a group with 1 μg/kg of the example compounds 4, 10, 14, and 26, a group with 3 μg/kg of the example compounds 4, 10, 14, and 26 and a group with 10 μg/kg of the example compounds 4, 10, 14, and 26; after 30 min from the dropping of the above concentration of drugs in the airway, 10 μg/kg body weight of Mch was intravenously injected for excitation, and airway resistance (Raw) and pulmonary dynamic compliance (Cdyn) within 5 min were determined. […]

[5] = read-out: IC50 (μM), antagonism in vitro against the contraction of the tracheal smooth muscle induced by CCh, 3 × 10^−6 mol/L of CCh
[6] = Cavia porcellus, read-out: IC50 (μM), antagonism in vitro against the contraction of the tracheal smooth muscle induced by CCh, 3 × 10^−6 mol/L of CCh

SMILES	IC50 [1, 5] [µM]	Onset time [2] [min]	Time for eliminating inhibition effect (min) [2]	Selectivity m1/m2, Mx/My = Ki(y)/Ki(x) [3]	Selectivity m1/m3, Mx/My = Ki(y)/Ki(x) [3]	Selectivity m2/m3, Mx/My = Ki(y)/Ki(x) [3]	IC50 [1, 6] [µM]	inhibition ratio against the decrease of pulmonary dynamic compliance ([4]; 1 μg/kg dropped in the airway) [%]	inhibition ratio against the increase of airway resistance ([4]; 1 μg/kg dropped in the airway) [%]	Cdyn(ml/cm H2O) ([4]; 1 μg/kg dropped in the airway)	Raw (cm H2O/ml/s) ([4]; 1 μg/kg dropped in the airway)	inhibition ratio against the decrease of pulmonary dynamic compliance ([4]; 3 μg/kg dropped in the airway) [%]	inhibition ratio against the increase of airway resistance ([4]; 3 μg/kg dropped in the airway) [%]	Cdyn(ml/cm H2O) ([4]; 3 μg/kg dropped in the airway)	Raw (cm H2O/ml/s) ([4]; 3 μg/kg dropped in the airway)	inhibition ratio against the decrease of pulmonary dynamic compliance ([4]; 10 μg/kg dropped in the airway) [%]	inhibition ratio against the increase of airway resistance ([4]; 10 μg/kg dropped in the airway) [%]	Cdyn(ml/cm H2O) ([4]; 10 μg/kg dropped in the airway)	Raw (cm H2O/ml/s) ([4]; 10 μg/kg dropped in the airway)
OC(CO[C@H]1C[N+]2(CCCOc3ccccc3)CCC1CC2)(c1ccccc1)C1CCCC1.[Br-] (stereo partly drawn) [Example 1, (2R,3S)-3-[(2-cyclopentyl-2-hydroxyl-2-phenyl)ethoxyl]-1-(3-phenoxypropyl)-1-azabicyclo[2,2,2]octane bromide]	0.767	6.89	more than 300 min	34.13	0.358	0.0105													
C[N+]1(C)CCC(OC(=O)C(c2ccccc2)c2ccccc2)CC1.[I-] [Example 4-DAMP, 4-DAMP, reference compound]				1.66	0.095	0.058													
O[C@@](COC1C[N+]2(CCCOc3ccccc3)CCC1CC2)(c1ccccc1)C1CCCCC1.[Br-] (stereo partly drawn) [Example 10, (2R,3R)-3-[(2-cyclohexyl-2-hydroxyl-2-phenyl)ethoxyl]-1-(3-phenoxypropyl)-1-azabicyclo[2,2,2]octane bromide]		6.24	more than 300 min				0.0227	10.9	63.7	0.098 ± 0.009	0.745 ± 0.089	45.9	84.5	0.135 ± 0.007	0.563 ± 0.057	49.8	91.3	0.189 ± 0.015	0.531 ± 0.092
OC(CO[C@@H]1C[N+]2(CCCOc3ccccc3)CCC1CC2)(c1ccccc1)C1CCC1.[Br-] (stereo partly drawn) [Example 16, (2R,3R)-3-[(2-cyclobutyl-2-hydroxyl-2-phenyl)ethoxyl]-1-(3-phenoxypropyl)-1-azabicyclo[2,2,2]octane bromide]	0.0573	6.38	more than 300 min	13.5	0.67	0.037													
O[C@@](CO[C@@H]1C[N+]2(CCOc3ccccc3)CCC1CC2)(c1ccccc1)C1CCCC1.[Br-] [Example 26, (2R,3R)-3-[(2-cyclopentyl-2-hydroxyl-2-phenyl)ethoxyl]-1-(2-phenoxyethyl)-1-azabicyclo[2,2,2]octane bromide]		6.14	more than 300 min				0.0235	11.0	64.4	0.103 ± 0.014	0.739 ± 0.085	47.1	87.2	0.143 ± 0.016	0.531 ± 0.063	49.9	92.1	0.205 ± 0.018	0.493 ± 0.083
CC[N+](CC)(CC)CCOc1cccc(OCC[N+](CC)(CC)CC)c1OCC[N+](CC)(CC)CC [Gallamine, reference compound]				0.011	0.676	60.26													
CN1CCN(CC(=O)N2c3ccccc3C(=O)Nc3cccnc32)CC1 [Pirenzepine, reference compound]				169.82	13.49	0.079													
